# Patent US4960771A, “Oxazolidinone penetration enhancing compounds” (priority 1988, dated 1990)
# Counter-ions that a name gives are not always drawn. Like-named read-outs stand apart in the source and are kept apart here.
# Tests used:
# Murine Erythroleukemia = conditions: Li et al., J. Med. Chem. 24, 1089 (1981); cited from earlier work
# [1] = 0.8% Clonidine; 75.2% compound + 25% isopropyl myristate vs 99.2% compound vs 99.2% DMSO; cited from earlier work
# [2] = 1% Diazepam in 74% ethanol and 25% compound; cited from earlier work
# [3] = for Average Cumulative Amount of ISDN in Micrograms permeating over 51 hours: cream; for permeation enhancing properties (conclusion in words): ISDN cream, 51 hours
# [4] = Permeation of Diltiazem hydrochloride (DZ) from cream through human stratum corneum (Example 35); type: in vitro ADME
# Text: (§1) Sci. 75, 1094 (1986). […] All formulations were studied in triplicate.
# [5] = type: in vitro ADME, human
# Procedure: as §1
# The Indomethacin (INDO) gel formulation used in Example 32 was prepared as follows.
# [6] = Permeation of Morphine Sulfate (MS) from transdermal patch through human stratum corneum (Example 33); type: in vitro ADME
# Text: as §1
# The procedure of Example 29 was repeated with Morphine Sulfate (MS) formulations incorporated in a transdermal patch.
# [7] = type: in vitro ADME, human; conditions: for Average Cumulative Amount of PG in Micrograms permeating over 51 hours: patch, releasing media 30% ethanol in normal saline
# Text: as §1
# The procedure of Example 29 was repeated with Progesterone (PG) incorporated in transdermal patch formulations. The releasing media contained 30% ethanol in normal saline.
# [8] = type: in vitro ADME, human; remark: listed apart in the source
# Text: as §1
# [9] = cream
# [10] = for Average Cumulative Amount of ISDN in Micrograms permeating over 51 hours: patch
# [11] = for permeation enhancing properties (conclusion in words): ISDN cream, vs control; for Average Cumulative Amount of ISDN in Micrograms permeating over 51 hours: cream, 1% ISDN + 1% enhancer
# [12] = Ishihara, C.A. 105: 48896 k (1986); cited from earlier work
# [13] = cited from earlier work
# [14] = Barry et al., J. Pharm. Pharmacol. 37, 226 (1985); cited from earlier work
structure (smiles),measurement,setting,value
"CCCCN1CCCN(CCCC)C1=O [1,3-dibutyltetrahydropyrimidin-2-one, 1,3-dibutyltetrahydro-pyrimidin-2-ones]",inducers of Murine Erythroleukemia differentiation,Murine Erythroleukemia,inducers of Murine Erythroleukemia differentiation
"CCN1CCCN(CC)C1=O [1,3-diethyltetrahydropyrimidin-2-one, 1,3-diethyl]",inducers of Murine Erythroleukemia differentiation,Murine Erythroleukemia,inducers of Murine Erythroleukemia differentiation
"CN1CCN(C)C1=O [1,3-dimethylimidazolidin-2-one]",tail arterial blood pressure,[1],no significant differences in tail arterial blood pressure in rats
"CCCCCN1CCN(CCCCC)C1=O [1,3-dipentylimidazolidin-2-one]",drug transport when combined with a polar substance such as ethanol,[2],potentiates the drug transport
"CCCCCCCCCCCCN1CCCCCC1=O [1-Dodecylhexahydro-2H-azepin-2-one, 1-Dodecyl-hexahydro-2H-azepin-2-one, reference compound]",Average Cumulative Amount of ISDN in Micrograms permeating over 51 hours,[3]; 1% ISDN + 1.4% enhancer,709 ± 170 Micrograms
"COc1ccc([C@@H]2Sc3ccccc3N(CCN(C)C)C(=O)[C@@H]2OC(C)=O)cc1 [DZ, Diltiazem hydrochloride, reference compound]",Average Cumulative amount of DZ in Micrograms permeating over 24 hours,"[4]; 5% DZ, no enhancer (Control)",125.3 ± 37 Micrograms
"CCCCCCCCCCC1COC(=O)N1 (centres unmarked) [Example 1, 4-Decyloxazolidin-2-one]",advantage of incorporating enhancer (conclusion in words),[5]; INDO gel and cream,clearly show the advantage of incorporating enhancer
same,Average Cumulative Amount of INDO in Micrograms permeating over 51 hours,"[5]; cream, 1% INDO + 1% enhancer",128 ± 6.1 Micrograms
same,Average Cumulative Amount of INDO in Micrograms permeating over 51 hours,"[5]; gel, 1% INDO + 1% enhancer",370.9 ± 56 Micrograms
same,superiority of patch formulation containing enhancer (conclusion in words),[6]; MS patch,superiority of the transdermal patch formulation
same,Average Cumulative Amount of MS in Micrograms permeating over 51 hours,"[6]; patch, 5% MS + 1% enhancer",622 ± 81.6 Micrograms
same,superiority of transdermal patch containing enhancer (conclusion in words),[7]; PG patch,superiority of the transdermal patch
same,Average Cumulative Amount of PG in Micrograms permeating over 51 hours,[7]; 3% PG + 5% enhancer,434 ± 135 Micrograms
same,Average Cumulative amount of DZ in Micrograms permeating over 24 hours,[4]; 5% DZ + 3% enhancer,303.0 ± 79.1 Micrograms
same,permeation of Diltiazem hydrochloride through the skin (conclusion in words),[4]; vs control,improves the permeation of Diltiazem hydrochloride through the skin significantly over the control
same,permeation enhancement of Nicotine (conclusion in words),"[8]; cream and patch, vs control",enhances the permeation significantly over control
same,Average Cumulative Amount of Nicotine in Micrograms permeating over 51 hours,"[8]; cream, 1% Nicotine + 3% enhancer",2002.0 ± 74.0 Micrograms
same,Average Cumulative Amount of Nicotine in Micrograms permeating over 51 hours,"[8]; cream, 5% Nicotine + 3% enhancer",8497.2 ± 1195 Micrograms
same,Average Cumulative Amount of Nicotine in Micrograms permeating over 51 hours,"[8]; patch, 5% Nicotine + 3% enhancer",208.1 ± 23.6 Micrograms
same,Average Cumulative Amount of Nicotine in Micrograms permeating over 51 hours,"[8]; patch, 10% Nicotine + 3% enhancer",3520.0 ± 139.0 Micrograms
same,permeation enhancing properties (conclusion in words),[3],superior permeation enhancing properties as compared to control and a known permeation enhancer
same,Average Cumulative Amount of ISDN in Micrograms permeating over 51 hours,[3]; 1% ISDN + 1.4% enhancer,1275 ± 104 Micrograms
same,Average Cumulative Amount of HC in Micrograms permeating over 24 hours,[9]; 0.5% HC + 1% enhancer,4.970 ± 0.79 Micrograms
same,permeation of HC (conclusion in words),[9]; vs control and commercial formulation,superior permeation as compared to control cream and to a commercial formulation with higher quantity of drug
same,Average Cumulative Amount of ISDN in Micrograms permeating over 51 hours,[10]; 3% ISDN (60%) + 8% enhancer,1438.4 ± 174 Micrograms
same,Average Cumulative Amount of ISDN in Micrograms permeating over 51 hours,[10]; 3% ISDN (100%) + 3% enhancer,1355.8 ± 262.5 Micrograms
same,permeation of ISDN from the transdermal patch (conclusion in words),[10]; vs control,superior to the control
"CCCCCCCCCCC1COC(=O)N1C (centres unmarked) [Example 2, 3-methyl-4-decyloxazolidin-2-one]",permeation enhancing properties (conclusion in words),[3],superior permeation enhancing properties as compared to control and a known permeation enhancer
same,Average Cumulative Amount of ISDN in Micrograms permeating over 51 hours,[3]; 1% ISDN + 1.6% enhancer,1020 ± 69 Micrograms
"CCCCCCCCCCC1COC(=O)O1 (centres unmarked) [Example 10, 4-decyl-1,3-dioxolan-2-one]",permeation enhancing properties (conclusion in words),[11],superior permeation enhancing properties as compared to control
same,Average Cumulative Amount of ISDN in Micrograms permeating over 51 hours,[11],1174.5 ± 37.2 Micrograms
"CCCCN1C(=O)N(CCC)C(OCC)C1OCC (centres unmarked) [Example 12, 4,5-diethoxy-1-butyl-3-propylimidazolidin-2-one]",permeation enhancing properties (conclusion in words),[11],superior permeation enhancing properties as compared to control
same,Average Cumulative Amount of ISDN in Micrograms permeating over 51 hours,[11],1057.7 ± 12.0 Micrograms
"CCCCCCCCOC1C(OCCCCCCCC)N(C)C(=O)N1C (centres unmarked) [Example 15, 4,5-dioctyloxy-1,3-dimethylimidazolidin-2-one]",permeation enhancing properties (conclusion in words),[11],superior permeation enhancing properties as compared to control
same,Average Cumulative Amount of ISDN in Micrograms permeating over 51 hours,[11],1175.6 ± 33.6 Micrograms
"CCOCCCN1CCOC1=O [Example 16, 3-(3-ethoxypropyl)oxazolidin-2-one]",permeation enhancing properties (conclusion in words),[11],superior permeation enhancing properties as compared to control
same,Average Cumulative Amount of ISDN in Micrograms permeating over 51 hours,[11],1110.9 ± 84.1 Micrograms
"CCCCCCCCOCCN1CCOC1=O [Example 18, 3-(2-octyloxyethyl)oxazolidin-2-one]",permeation enhancing properties (conclusion in words),[11],superior permeation enhancing properties as compared to control
same,Average Cumulative Amount of ISDN in Micrograms permeating over 51 hours,[11],1185.1 ± 94.7 Micrograms
"CCCCCCCCCCCC1CNC(=O)N1 (centres unmarked) [Example 19, 4-undecylimidazolidin-2-one]",permeation enhancing properties (conclusion in words),[11],superior permeation enhancing properties as compared to control
same,Average Cumulative Amount of ISDN in Micrograms permeating over 51 hours,[11],1318.4 ± 21.6 Micrograms
"CCCCN1C(=O)OCC1Cc1ccccc1 (centres unmarked) [Example 20, 3-butyl-4-benzyloxazolidin-2-one]",permeation enhancing properties (conclusion in words),[11],superior permeation enhancing properties as compared to control
same,Average Cumulative Amount of ISDN in Micrograms permeating over 51 hours,[11],1147.7 ± 36.0 Micrograms
"CCCCCCCCCCCC1CN(C)C(=O)N1C (centres unmarked) [Example 21, 1,3-dimethyl-4-undecylimidazolidin-2-one]",permeation enhancing properties (conclusion in words),[11],superior permeation enhancing properties as compared to control
same,Average Cumulative Amount of ISDN in Micrograms permeating over 51 hours,[11],1257.0 ± 137.0 Micrograms
"CCCCN1CCN(CCOCC)C1=O [Example 22, 1-butyl-3-(2-ethoxyethyl)imidazolidin2-one]",permeation enhancing properties (conclusion in words),[11],superior permeation enhancing properties as compared to control
same,Average Cumulative Amount of ISDN in Micrograms permeating over 51 hours,[11],1091.2 ± 125.0 Micrograms
"COc1ccc2c(c1)c(CC(=O)O)c(C)n2C(=O)c1ccc(Cl)cc1 [INDO, Indomethacin, reference compound]",Average Cumulative Amount of INDO in Micrograms permeating over 51 hours,"[5]; cream, 1% INDO, no enhancer",72 ± 9 Micrograms
same,Average Cumulative Amount of INDO in Micrograms permeating over 51 hours,"[5]; gel, 1% INDO, no enhancer (Control)",304.8 ± 20 Micrograms
"CC(=O)[C@H]1CC[C@H]2[C@@H]3CCC4=CC(=O)CC[C@]4(C)[C@H]3CC[C@]12C [PG, Progesterone, reference compound]",Average Cumulative Amount of PG in Micrograms permeating over 51 hours,"[7]; 3% PG, no enhancer (Control)",86 ± 61 Micrograms
"O=C1OCCO1 [ethylene carbonate, 1,3-dioxolan-2-one]",efficacy on addition to the composition,[12],did not improve the efficacy
"CC1COC(=O)O1 (centres unmarked) [propylene carbonate, 4-methyl-1,3-dioxolan-2-one]",solubility in water,[13],water soluble
same,flux of model penetrants through human skin,[14],low flux
